# From patent US6930127B2, “Veterinary treatment of ophthalmic disease in animals using topical tacrolimus” (Eaton Veterinary Laboratories, Inc., priority 2002, dated 2005)
# How the values were obtained:
# [1] = test system: canines with keratoconjunctivitis sicca; experiment: Clinical trial of topical tacrolimus in treatment of canine keratoconjunctivitis sicca; format: in vivo, dogs; settings: twice daily, 30 days
# Description: A population of canines with keratoconjunctivitis sicca was subject to a method of treatment with a topical tacrolimus solution in order to evaluate the therapeutic effectiveness of the drug. Materials • 0.02% tacrolimus was prepared in a physiologically acceptable ointment base. • 0.02% tacrolimus was prepared in a physiologically acceptable oil base. • Schirmer Tear Test strips were employed to measure tearing. • Petrolatum eye ointment was used for patient comfort. • Commercial eyewash was used as a cleaning solution. The test group consisted of 26 dogs of various breeds from different geographic areas. […] 24 dogs were administered a dose of tacrolimus in either ointment or oil base twice daily in both eyes for 30 days. 2 dogs received the same treatment in only one eye. Petrolatum ointment was administered to some dogs as necessary for comfort. Debris was flushed from the eyes as necessary using a commercial eyewash preparation. The eyes were examined and observations recorded at days 7-14 and again at 21-30 days during treatment.
# [2] = cited from earlier work
# [3] = test system: immune response; settings: 'thought to be'; cited from earlier work
structure (smiles),measurement,setting,value
C=CC[C@@H]1/C=C(\C)C[C@H](C)C[C@H](OC)[C@H]2O[C@@](O)(C(=O)C(=O)N3CCCC[C@H]3C(=O)O[C@H](/C(C)=C/[C@@H]3CC[C@@H](O)[C@H](OC)C3)[C@H](C)[C@@H](O)CC1=O)[C@H](C)C[C@@H]2OC [Tacrolimus],signs of ocular irritation,"[1]; 0.02% tacrolimus in ointment or oil base, topical",None of the subjects exhibited signs of ocular irritation
same,treated eyes exhibiting improvement,"[1]; 0.02% tacrolimus in ointment or oil base, topical, 26 dogs with KCS",96%
same,treated eyes exhibiting improved Schirmer Tear Test (STT) values,"[1]; 0.02% tacrolimus in ointment or oil base, topical, 60 second STT",92%
same,additional effect: corneal scarring and pigmentation,[1]; 0.02% tacrolimus topical,reduction in corneal scarring and pigmentation
same,additional effect: inflammation of the conjunctiva,[1]; 0.02% tacrolimus topical,reduction in inflammation of the conjunctiva
same,"effectiveness in dogs, including those where cyclosporine had previously failed",[1]; 0.02% tacrolimus topical,effective in some dogs for whom cyclosporine treatment had previously failed
same,solubility in alcohols and some oils,[2]; alcohols and some oils,soluble
same,solubility in water,[2]; water,practically insoluble
same,potency relative to cyclosporine on a per gram basis,[3],up to 100 times
